Measured values as given in ChEMBL document CHEMBL1134831, “2-(3,5-Dimethylphenyl)tryptamine derivatives that bind to the GnRH receptor” (Bioorg Med Chem Lett, 2001).

Target: T1, Gonadotropin-releasing hormone receptor (Rattus norvegicus, UniProt P30969)
T1 sequence (P30969 whole entry): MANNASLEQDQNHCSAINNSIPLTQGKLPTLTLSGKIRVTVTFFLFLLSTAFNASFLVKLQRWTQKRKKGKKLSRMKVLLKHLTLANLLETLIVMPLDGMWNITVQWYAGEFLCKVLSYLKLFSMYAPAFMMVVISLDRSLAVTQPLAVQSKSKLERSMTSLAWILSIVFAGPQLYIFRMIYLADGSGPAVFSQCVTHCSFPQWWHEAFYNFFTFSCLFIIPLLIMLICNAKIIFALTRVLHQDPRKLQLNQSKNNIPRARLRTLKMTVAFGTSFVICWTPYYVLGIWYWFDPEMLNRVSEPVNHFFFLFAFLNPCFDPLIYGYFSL
Test: Inhibition of rat GnRH receptor binding

| SMILES | IC50 [nM] |
| --- | --- |
| Cc1cc(C)cc(-c2[nH]c3ccccc3c2CCNCCCCc2ccc(N)cc2)c1 | 300 |
| CCS(=O)(=O)Nc1ccc(CCCCNCCc2c(-c3cc(C)cc(C)c3)[nH]c3ccccc23)cc1 | 200 |
| CCNS(=O)(=O)Nc1ccc(CCCCNCCc2c(-c3cc(C)cc(C)c3)[nH]c3ccccc23)cc1 | 40 |
| Cc1cc(C)cc(-c2[nH]c3ccccc3c2CCNCCCCc2ccc(F)cc2)c1 | 300 |
| Cc1cc(C)cc(-c2[nH]c3ccccc3c2CCNCCCCc2ccc(NS(=O)(=O)c3ccccc3)cc2)c1 | 300 |
| Cc1cc(C)cc(-c2[nH]c3ccccc3c2CCNCCCCc2ccc(NS(=O)(=O)C(C)C)cc2)c1 | 220 |
| CCNC(=O)Nc1ccc(CCCCNCCc2c(-c3cc(C)cc(C)c3)[nH]c3ccccc23)cc1 | 28 |
| CNC(=O)Nc1ccc(CCCCNCCc2c(-c3cc(C)cc(C)c3)[nH]c3ccccc23)cc1 | 48 |
| CC(=O)Nc1ccc(CCCCNCCc2c(-c3cc(C)cc(C)c3)[nH]c3ccccc23)cc1 | 200 |
| CNS(=O)(=O)Nc1ccc(CCCCNCCc2c(-c3cc(C)cc(C)c3)[nH]c3ccccc23)cc1 | 47 |
| Cc1cc(C)cc(-c2[nH]c3ccccc3c2CCNCCCCc2ccc([N+](=O)[O-])cc2)c1 | 500 |
| Cc1cc(C)cc(-c2[nH]c3ccccc3c2CCNCCCCc2ccc(S(N)(=O)=O)cc2)c1 | 36 |
